Source: the kinase profiling compilation of Christmann-Franck et al. (2016)
Values belong to the molecule of their own block, whether it stands above or below them.

How the values were obtained:
Assay in all cases: KINOMEscan competition binding
Conditions in all cases: compound 10.0 µM
[1] = target: DMPK (human) (UniProt Q09013)
[2] = target: ULK1 (human) (UniProt O75385)
[3] = target: PAK6 (human) (UniProt Q9NQU5)
[4] = target: SRPK1 (human) (UniProt Q96SB4)
[5] = system: EGFR (human), P00533 [L861Q]
[6] = target: TNNI3K (human) (UniProt Q59H18)
[7] = target: MUSK (human) (UniProt O15146)
[8] = target: CSNK1G3 (human) (UniProt Q9Y6M4)
[9] = target: FLT4 (human) (UniProt P35916)
[10] = system: FGFR3 (human), P22607 [G697C]
[11] = target: MAP2K4 (human) (UniProt P45985)
MAP2K4 (human), sequence (P45985 whole entry, looked up): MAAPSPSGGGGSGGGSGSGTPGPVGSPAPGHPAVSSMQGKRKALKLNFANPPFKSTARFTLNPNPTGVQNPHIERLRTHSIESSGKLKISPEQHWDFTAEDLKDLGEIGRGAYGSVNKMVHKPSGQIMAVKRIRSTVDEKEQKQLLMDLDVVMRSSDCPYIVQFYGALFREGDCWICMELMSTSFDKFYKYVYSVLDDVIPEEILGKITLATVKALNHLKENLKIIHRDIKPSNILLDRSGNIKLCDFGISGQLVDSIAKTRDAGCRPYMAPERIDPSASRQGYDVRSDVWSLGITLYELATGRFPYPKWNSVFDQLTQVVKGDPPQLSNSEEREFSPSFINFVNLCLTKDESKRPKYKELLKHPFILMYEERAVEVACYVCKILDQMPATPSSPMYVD

[12] = target: SRPK3 (human) (UniProt Q9UPE1)
[13] = target: STK38L (human) (UniProt Q9Y2H1)
[14] = target: TTK (human) (UniProt P33981)
[15] = target: CDK9 (human) (UniProt P50750)
[16] = target: PLK1 (human) (UniProt P53350)
[17] = target: CAMK2D (human) (UniProt Q13557)
[18] = system: PIK3CA (human), P42336 [E545K]
[19] = target: CLK1 (human) (UniProt P49759)
[20] = target: STK32C (human) (UniProt Q86UX6)
[21] = target: MAP2K3 (human) (UniProt P46734)
[22] = target: CaMK1 (human) (UniProt Q14012)
[23] = target: RPS6KA2 KD2 (human) (UniProt Q15349)
RPS6KA2 KD2 (human), sequence (Q15349 whole entry, looked up): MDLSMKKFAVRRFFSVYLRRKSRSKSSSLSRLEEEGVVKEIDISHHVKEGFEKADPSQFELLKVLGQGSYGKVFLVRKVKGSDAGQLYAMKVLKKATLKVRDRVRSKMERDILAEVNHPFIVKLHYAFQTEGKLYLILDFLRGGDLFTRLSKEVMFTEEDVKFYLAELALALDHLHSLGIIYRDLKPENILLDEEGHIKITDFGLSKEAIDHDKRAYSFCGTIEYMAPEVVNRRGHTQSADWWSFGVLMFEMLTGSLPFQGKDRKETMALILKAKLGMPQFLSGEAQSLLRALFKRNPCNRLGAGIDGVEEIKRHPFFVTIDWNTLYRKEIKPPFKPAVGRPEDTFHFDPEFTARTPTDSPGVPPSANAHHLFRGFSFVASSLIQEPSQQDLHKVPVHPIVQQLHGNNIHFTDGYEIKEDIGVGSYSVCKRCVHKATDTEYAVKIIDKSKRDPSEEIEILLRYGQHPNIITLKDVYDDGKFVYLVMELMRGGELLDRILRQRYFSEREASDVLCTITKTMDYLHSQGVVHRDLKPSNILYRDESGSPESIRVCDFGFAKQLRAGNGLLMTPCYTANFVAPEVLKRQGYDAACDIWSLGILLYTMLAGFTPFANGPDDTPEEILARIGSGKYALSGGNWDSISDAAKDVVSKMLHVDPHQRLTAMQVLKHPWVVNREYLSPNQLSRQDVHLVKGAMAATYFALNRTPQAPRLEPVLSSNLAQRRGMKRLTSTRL

[24] = target: PRKG1 (human) (UniProt Q13976)
[25] = target: SIK2 (human) (UniProt Q9H0K1)
[26] = target: MLTK (human) (UniProt Q9NYL2)
[27] = target: RPS6KA4 KD1 (human) (UniProt O75676)
[28] = target: STK33 (human) (UniProt Q9BYT3)
[29] = target: ROS1 (human) (UniProt P08922)
ROS1 (human), sequence (P08922 whole entry, looked up): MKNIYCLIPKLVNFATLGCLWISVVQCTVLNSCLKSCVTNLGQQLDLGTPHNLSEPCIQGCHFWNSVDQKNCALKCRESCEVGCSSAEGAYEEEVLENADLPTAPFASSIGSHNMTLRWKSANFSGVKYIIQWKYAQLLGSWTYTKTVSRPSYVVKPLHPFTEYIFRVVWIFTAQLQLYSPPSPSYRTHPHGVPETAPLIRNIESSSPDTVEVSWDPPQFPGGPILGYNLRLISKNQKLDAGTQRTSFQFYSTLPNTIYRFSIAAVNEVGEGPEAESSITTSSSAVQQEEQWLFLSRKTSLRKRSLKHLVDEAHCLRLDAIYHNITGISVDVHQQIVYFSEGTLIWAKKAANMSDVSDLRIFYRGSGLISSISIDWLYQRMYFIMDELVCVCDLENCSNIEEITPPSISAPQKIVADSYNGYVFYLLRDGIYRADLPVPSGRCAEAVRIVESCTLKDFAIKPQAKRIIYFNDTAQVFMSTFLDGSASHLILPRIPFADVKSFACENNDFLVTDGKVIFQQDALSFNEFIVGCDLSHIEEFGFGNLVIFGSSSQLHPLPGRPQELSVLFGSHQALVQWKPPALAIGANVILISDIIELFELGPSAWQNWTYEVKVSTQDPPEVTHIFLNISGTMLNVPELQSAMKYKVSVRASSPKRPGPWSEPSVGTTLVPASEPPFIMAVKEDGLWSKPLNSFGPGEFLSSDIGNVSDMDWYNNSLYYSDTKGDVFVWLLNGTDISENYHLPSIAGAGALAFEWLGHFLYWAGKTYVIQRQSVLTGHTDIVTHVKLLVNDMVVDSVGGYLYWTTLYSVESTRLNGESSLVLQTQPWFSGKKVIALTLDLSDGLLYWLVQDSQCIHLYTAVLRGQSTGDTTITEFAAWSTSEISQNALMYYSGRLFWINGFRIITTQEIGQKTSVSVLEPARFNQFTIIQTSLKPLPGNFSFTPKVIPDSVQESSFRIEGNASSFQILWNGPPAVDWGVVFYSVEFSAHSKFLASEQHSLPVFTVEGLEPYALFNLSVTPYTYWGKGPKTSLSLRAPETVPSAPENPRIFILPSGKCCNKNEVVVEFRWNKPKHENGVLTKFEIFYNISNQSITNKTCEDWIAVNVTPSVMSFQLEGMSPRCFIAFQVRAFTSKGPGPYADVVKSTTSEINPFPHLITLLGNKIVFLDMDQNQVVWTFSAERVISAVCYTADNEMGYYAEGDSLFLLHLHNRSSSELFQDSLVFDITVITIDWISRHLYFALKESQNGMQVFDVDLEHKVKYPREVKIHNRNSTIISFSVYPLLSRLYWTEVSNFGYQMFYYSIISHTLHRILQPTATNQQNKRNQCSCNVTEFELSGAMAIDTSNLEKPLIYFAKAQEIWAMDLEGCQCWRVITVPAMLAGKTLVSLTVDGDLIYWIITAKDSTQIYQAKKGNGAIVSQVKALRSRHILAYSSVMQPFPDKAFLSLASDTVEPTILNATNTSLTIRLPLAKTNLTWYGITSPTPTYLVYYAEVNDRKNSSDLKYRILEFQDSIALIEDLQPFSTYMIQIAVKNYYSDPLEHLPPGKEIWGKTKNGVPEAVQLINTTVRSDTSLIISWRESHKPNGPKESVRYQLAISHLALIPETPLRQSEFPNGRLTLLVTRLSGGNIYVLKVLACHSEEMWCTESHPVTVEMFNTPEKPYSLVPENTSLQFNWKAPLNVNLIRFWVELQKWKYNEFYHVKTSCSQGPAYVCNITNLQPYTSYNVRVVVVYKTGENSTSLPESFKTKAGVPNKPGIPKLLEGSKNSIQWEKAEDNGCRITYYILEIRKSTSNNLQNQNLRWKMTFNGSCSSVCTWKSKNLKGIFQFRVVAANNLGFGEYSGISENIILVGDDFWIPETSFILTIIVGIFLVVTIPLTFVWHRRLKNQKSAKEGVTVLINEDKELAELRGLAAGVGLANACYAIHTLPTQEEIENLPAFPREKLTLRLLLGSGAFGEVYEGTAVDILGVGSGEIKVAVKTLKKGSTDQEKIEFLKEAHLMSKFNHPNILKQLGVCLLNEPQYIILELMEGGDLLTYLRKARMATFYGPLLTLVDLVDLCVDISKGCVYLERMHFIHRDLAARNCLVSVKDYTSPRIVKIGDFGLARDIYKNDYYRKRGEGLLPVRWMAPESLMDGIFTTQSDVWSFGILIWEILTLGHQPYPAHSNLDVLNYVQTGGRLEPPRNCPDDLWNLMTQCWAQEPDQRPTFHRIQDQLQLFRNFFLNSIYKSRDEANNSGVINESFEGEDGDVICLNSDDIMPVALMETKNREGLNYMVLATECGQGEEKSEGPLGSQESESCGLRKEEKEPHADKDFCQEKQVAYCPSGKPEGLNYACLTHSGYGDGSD

[30] = target: PIM1 (human) (UniProt P11309)
PIM1 (human), sequence (P11309 whole entry, looked up): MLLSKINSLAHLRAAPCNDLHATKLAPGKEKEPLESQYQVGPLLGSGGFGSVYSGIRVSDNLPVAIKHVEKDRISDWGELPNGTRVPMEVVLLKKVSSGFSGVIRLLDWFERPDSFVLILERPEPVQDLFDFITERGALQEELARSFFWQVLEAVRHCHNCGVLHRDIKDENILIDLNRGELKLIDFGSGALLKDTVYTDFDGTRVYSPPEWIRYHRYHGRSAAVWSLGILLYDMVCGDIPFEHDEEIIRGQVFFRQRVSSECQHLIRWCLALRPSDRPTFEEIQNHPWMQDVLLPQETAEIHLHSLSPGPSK

[31] = target: ADCK3 (human) (UniProt Q8NI60)
[32] = target: GAK (human) (UniProt O14976)
GAK (human), sequence (O14976 whole entry, looked up): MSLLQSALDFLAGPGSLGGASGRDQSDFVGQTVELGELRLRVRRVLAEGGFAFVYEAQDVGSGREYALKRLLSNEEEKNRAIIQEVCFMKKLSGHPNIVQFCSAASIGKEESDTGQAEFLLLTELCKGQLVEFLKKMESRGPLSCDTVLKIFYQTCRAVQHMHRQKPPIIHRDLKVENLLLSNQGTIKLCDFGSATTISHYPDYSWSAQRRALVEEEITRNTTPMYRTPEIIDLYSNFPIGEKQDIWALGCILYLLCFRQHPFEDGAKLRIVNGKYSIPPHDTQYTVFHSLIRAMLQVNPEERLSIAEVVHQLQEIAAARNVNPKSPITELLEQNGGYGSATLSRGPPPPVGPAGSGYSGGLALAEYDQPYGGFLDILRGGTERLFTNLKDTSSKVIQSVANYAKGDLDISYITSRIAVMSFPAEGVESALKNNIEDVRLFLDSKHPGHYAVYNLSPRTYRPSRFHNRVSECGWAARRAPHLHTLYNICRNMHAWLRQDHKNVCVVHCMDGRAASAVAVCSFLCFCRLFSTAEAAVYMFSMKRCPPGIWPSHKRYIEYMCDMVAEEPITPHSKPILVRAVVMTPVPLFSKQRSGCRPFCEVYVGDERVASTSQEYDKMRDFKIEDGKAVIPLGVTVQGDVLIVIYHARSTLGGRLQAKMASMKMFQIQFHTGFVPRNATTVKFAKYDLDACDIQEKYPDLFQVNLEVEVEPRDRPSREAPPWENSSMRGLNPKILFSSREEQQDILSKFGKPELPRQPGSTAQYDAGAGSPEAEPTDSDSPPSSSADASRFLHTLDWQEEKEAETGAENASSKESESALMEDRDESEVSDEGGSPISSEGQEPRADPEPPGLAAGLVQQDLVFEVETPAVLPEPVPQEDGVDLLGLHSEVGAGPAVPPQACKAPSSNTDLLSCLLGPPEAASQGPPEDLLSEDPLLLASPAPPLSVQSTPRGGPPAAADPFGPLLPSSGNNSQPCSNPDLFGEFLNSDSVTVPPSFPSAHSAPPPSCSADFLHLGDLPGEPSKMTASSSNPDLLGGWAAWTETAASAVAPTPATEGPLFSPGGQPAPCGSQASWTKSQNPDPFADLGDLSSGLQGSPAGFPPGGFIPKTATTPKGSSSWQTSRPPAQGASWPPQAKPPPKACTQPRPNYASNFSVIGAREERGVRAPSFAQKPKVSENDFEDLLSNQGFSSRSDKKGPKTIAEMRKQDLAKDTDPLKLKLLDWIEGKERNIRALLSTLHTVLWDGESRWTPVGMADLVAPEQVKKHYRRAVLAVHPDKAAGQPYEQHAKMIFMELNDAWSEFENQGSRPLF

[33] = target: RIOK3 (human) (UniProt O14730)
[34] = target: EPHA3 (human) (UniProt P29320)
[35] = target: EPHB1 (human) (UniProt P54762)
[36] = target: PKN2 (human) (UniProt Q16513)
[37] = target: PIK3CD (human) (UniProt O00329)
[38] = target: TGFBR1 (human) (UniProt P36897)
[39] = target: NEK2 (human) (UniProt P51955)
[40] = system: EGFR (human), P00533 [G719C]
[41] = target: STK35 (human) (UniProt Q8TDR2)
[42] = target: CDC2L2 (human) (UniProt Q9UQ88)

- kinase still bound, per cent of control [1]: 1.8%
- kinase still bound, per cent of control [2]: 0.1%
- kinase still bound, per cent of control [3]: 13%
- kinase still bound, per cent of control [4]: 2.2%
- kinase still bound, per cent of control [5]: 0.15%
- kinase still bound, per cent of control [6]: 15%
- kinase still bound, per cent of control [7]: 0.35%
- kinase still bound, per cent of control [8]: 40%
- kinase still bound, per cent of control [9]: 0.05%
- kinase still bound, per cent of control [10]: 0.25%
- kinase still bound, per cent of control [11]: 1.6%
- kinase still bound, per cent of control [12]: 1.7%
- kinase still bound, per cent of control [13]: 7.3%
- kinase still bound, per cent of control [14]: 0%
- kinase still bound, per cent of control [15]: 40%
- kinase still bound, per cent of control [16]: 0.1%
- kinase still bound, per cent of control [17]: 4.1%
- kinase still bound, per cent of control [18]: 40%
- kinase still bound, per cent of control [19]: 0.4%
- kinase still bound, per cent of control [20]: 3.1%
- kinase still bound, per cent of control [21]: 0.8%
- kinase still bound, per cent of control [22]: 1.4%
- kinase still bound, per cent of control [23]: 6.2%
- kinase still bound, per cent of control [24]: 1.3%
- kinase still bound, per cent of control [25]: 7.5%
- kinase still bound, per cent of control [26]: 40%
- kinase still bound, per cent of control [27]: 4.4%
- kinase still bound, per cent of control [28]: 0.1%
- kinase still bound, per cent of control [29]: 0.45%
- kinase still bound, per cent of control [30]: 40%
- kinase still bound, per cent of control [31]: 9.2%
- kinase still bound, per cent of control [32]: 0.1%
- kinase still bound, per cent of control [33]: 3.2%
- kinase still bound, per cent of control [34]: 40%
- kinase still bound, per cent of control [35]: 0.1%
- kinase still bound, per cent of control [36]: 3.2%
- kinase still bound, per cent of control [37]: 40%
- kinase still bound, per cent of control [38]: 0.2%
- kinase still bound, per cent of control [39]: 2.5%
SMILES: COc1cc(N2CCC(N3CCN(C)CC3)CC2)ccc1Nc1ncc(Cl)c(Nc2ccccc2S(=O)(=O)C(C)C)n1

SMILES: CCN1CCN(Cc2ccc(NC(=O)c3ccc(C)c(/C=C/c4cnc(Nc5cc(N6CCNCC6)nc(C)n5)cn4)c3)cc2C(F)(F)F)CC1
- kinase still bound, per cent of control [1]: 100%
- kinase still bound, per cent of control [2]: 83%
- kinase still bound, per cent of control [3]: 91%
- kinase still bound, per cent of control [40]: 1.8%
- kinase still bound, per cent of control [4]: 77%
- kinase still bound, per cent of control [5]: 0.85%
- kinase still bound, per cent of control [6]: 12%
- kinase still bound, per cent of control [7]: 5.2%
- kinase still bound, per cent of control [8]: 100%
- kinase still bound, per cent of control [9]: 26%
- kinase still bound, per cent of control [10]: 23%
- kinase still bound, per cent of control [11]: 100%
- kinase still bound, per cent of control [12]: 82%
- kinase still bound, per cent of control [13]: 84%
- kinase still bound, per cent of control [14]: 85%
- kinase still bound, per cent of control [15]: 99%
- kinase still bound, per cent of control [16]: 100%
- kinase still bound, per cent of control [17]: 100%
- kinase still bound, per cent of control [18]: 100%
- kinase still bound, per cent of control [19]: 29%
- kinase still bound, per cent of control [20]: 96%
- kinase still bound, per cent of control [21]: 100%
- kinase still bound, per cent of control [22]: 90%
- kinase still bound, per cent of control [23]: 43%
- kinase still bound, per cent of control [24]: 100%
- kinase still bound, per cent of control [25]: 61%
- kinase still bound, per cent of control [26]: 1.2%
- kinase still bound, per cent of control [41]: 57%
- kinase still bound, per cent of control [27]: 100%
- kinase still bound, per cent of control [28]: 90%
- kinase still bound, per cent of control [29]: 100%
- kinase still bound, per cent of control [30]: 76%
- kinase still bound, per cent of control [42]: 69%
- kinase still bound, per cent of control [31]: 100%
- kinase still bound, per cent of control [32]: 51%
- kinase still bound, per cent of control [33]: 78%
- kinase still bound, per cent of control [34]: 4.4%
- kinase still bound, per cent of control [35]: 16%
- kinase still bound, per cent of control [36]: 100%
- kinase still bound, per cent of control [37]: 50%
- kinase still bound, per cent of control [38]: 99%
- kinase still bound, per cent of control [39]: 100%

SMILES: CCOc1cc(N2CCC(N3CCCCC3)CC2)ccc1Nc1nc(Nc2ccccc2S(=O)(=O)C(C)C)c2cn[nH]c2n1
- kinase still bound, per cent of control [1]: 70%
- kinase still bound, per cent of control [2]: 1.8%
- kinase still bound, per cent of control [3]: 100%
- kinase still bound, per cent of control [40]: 81%
- kinase still bound, per cent of control [4]: 100%
- kinase still bound, per cent of control [5]: 7.7%
- kinase still bound, per cent of control [6]: 100%
- kinase still bound, per cent of control [7]: 100%
- kinase still bound, per cent of control [8]: 50%
- kinase still bound, per cent of control [9]: 100%
- kinase still bound, per cent of control [10]: 97%
- kinase still bound, per cent of control [11]: 8.2%
- kinase still bound, per cent of control [12]: 100%
- kinase still bound, per cent of control [13]: 100%
- kinase still bound, per cent of control [14]: 6.5%
- kinase still bound, per cent of control [15]: 100%
- kinase still bound, per cent of control [16]: 47%
- kinase still bound, per cent of control [17]: 34%
- kinase still bound, per cent of control [18]: 100%
- kinase still bound, per cent of control [19]: 0.4%
- kinase still bound, per cent of control [20]: 88%
- kinase still bound, per cent of control [21]: 7%
- kinase still bound, per cent of control [22]: 4.6%
- kinase still bound, per cent of control [23]: 7.4%
- kinase still bound, per cent of control [24]: 100%
- kinase still bound, per cent of control [25]: 85%
- kinase still bound, per cent of control [26]: 100%
- kinase still bound, per cent of control [41]: 100%
- kinase still bound, per cent of control [27]: 100%
- kinase still bound, per cent of control [28]: 15%
- kinase still bound, per cent of control [29]: 5.8%
- kinase still bound, per cent of control [30]: 100%
- kinase still bound, per cent of control [42]: 100%
- kinase still bound, per cent of control [31]: 84%
- kinase still bound, per cent of control [32]: 6%
- kinase still bound, per cent of control [33]: 88%
- kinase still bound, per cent of control [34]: 100%
- kinase still bound, per cent of control [35]: 100%
- kinase still bound, per cent of control [36]: 100%
- kinase still bound, per cent of control [37]: 100%
- kinase still bound, per cent of control [38]: 95%
- kinase still bound, per cent of control [39]: 100%

- kinase still bound, per cent of control [40]: 12%
- kinase still bound, per cent of control [5]: 15%
- kinase still bound, per cent of control [6]: 4.8%
- kinase still bound, per cent of control [7]: 0.2%
- kinase still bound, per cent of control [9]: 0.2%
- kinase still bound, per cent of control [10]: 16%
- kinase still bound, per cent of control [13]: 6.8%
- kinase still bound, per cent of control [14]: 24%
- kinase still bound, per cent of control [15]: 5.8%
- kinase still bound, per cent of control [22]: 0%
- kinase still bound, per cent of control [26]: 0.35%
- kinase still bound, per cent of control [41]: 3%
- kinase still bound, per cent of control [42]: 0.05%
- kinase still bound, per cent of control [32]: 31%
- kinase still bound, per cent of control [34]: 3.4%
SMILES: CCN1CCN(Cc2ccc(NC(=O)c3ccc(C)c(Oc4ccnc5[nH]ccc45)c3)cc2C(F)(F)F)CC1
